In US9062124B2, “GIP-based mixed agonists for treatment of metabolic disorders and obesity” (priority 2008, dated 2015):
Where a SMILES comes first, the peptide text is derived from it. Bridges are numbered along the chain shown (N, C = ends). [ ]: non-standard residue; d: D form. Aib = CC(C)(N)C(=O)O

Legend:
Assay type in all cases: cell-based
GIP receptor = target: T1, GIP receptor (Homo sapiens, UniProt P48546); test: cAMP synthesis functional assay (firefly luciferase reporter in HEK293 cells), GIP receptor; conditions: Table 1; for GIP Receptor relative activity: relative to the native hormone of the indicated receptor
T1 construct: expressed in transfected cells; host or cells: HEK293
T1 sequence (P48546 22-466): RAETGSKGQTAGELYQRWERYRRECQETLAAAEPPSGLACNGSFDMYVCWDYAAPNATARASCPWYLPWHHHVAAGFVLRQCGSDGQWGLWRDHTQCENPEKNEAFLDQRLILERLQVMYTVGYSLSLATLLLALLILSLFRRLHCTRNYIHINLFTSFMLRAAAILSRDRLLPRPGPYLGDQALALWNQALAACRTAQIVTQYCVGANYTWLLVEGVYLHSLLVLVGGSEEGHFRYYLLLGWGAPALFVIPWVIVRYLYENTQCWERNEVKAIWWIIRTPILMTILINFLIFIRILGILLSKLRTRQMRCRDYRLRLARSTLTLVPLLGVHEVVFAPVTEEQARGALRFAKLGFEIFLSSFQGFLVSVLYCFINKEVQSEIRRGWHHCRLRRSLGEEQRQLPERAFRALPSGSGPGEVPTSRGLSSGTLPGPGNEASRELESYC

GLP-1 receptor = target: T2, GLP-1 receptor (Homo sapiens, UniProt P43220); test: cAMP synthesis functional assay (firefly luciferase reporter in HEK293 cells), GLP-1 receptor; conditions: Table 1; for EC50: GLP-1 Receptor EC50, nM; for GLP-1 Receptor relative activity: relative to the native hormone of the indicated receptor
T2 construct: expressed in transfected cells; host or cells: HEK293
T2 sequence (P43220 24-463, species assumed): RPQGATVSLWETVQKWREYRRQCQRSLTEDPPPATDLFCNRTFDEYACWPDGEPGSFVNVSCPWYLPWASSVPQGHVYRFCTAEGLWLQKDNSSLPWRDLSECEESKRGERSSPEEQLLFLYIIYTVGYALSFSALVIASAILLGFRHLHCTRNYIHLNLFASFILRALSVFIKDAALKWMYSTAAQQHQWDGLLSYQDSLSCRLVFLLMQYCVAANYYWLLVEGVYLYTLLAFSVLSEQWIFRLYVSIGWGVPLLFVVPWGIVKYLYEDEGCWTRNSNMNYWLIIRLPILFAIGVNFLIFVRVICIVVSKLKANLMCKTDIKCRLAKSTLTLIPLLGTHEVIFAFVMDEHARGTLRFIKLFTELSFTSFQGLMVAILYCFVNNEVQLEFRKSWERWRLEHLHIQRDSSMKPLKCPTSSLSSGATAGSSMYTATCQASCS

glucagon receptor = target: T3, glucagon receptor (Homo sapiens, UniProt P47871); test: cAMP synthesis functional assay (firefly luciferase reporter in HEK293 cells), glucagon receptor; conditions: Table 1; relative to the native hormone of the indicated receptor
T3 construct: expressed in transfected cells; host or cells: HEK293
T3 sequence (P47871 26-477): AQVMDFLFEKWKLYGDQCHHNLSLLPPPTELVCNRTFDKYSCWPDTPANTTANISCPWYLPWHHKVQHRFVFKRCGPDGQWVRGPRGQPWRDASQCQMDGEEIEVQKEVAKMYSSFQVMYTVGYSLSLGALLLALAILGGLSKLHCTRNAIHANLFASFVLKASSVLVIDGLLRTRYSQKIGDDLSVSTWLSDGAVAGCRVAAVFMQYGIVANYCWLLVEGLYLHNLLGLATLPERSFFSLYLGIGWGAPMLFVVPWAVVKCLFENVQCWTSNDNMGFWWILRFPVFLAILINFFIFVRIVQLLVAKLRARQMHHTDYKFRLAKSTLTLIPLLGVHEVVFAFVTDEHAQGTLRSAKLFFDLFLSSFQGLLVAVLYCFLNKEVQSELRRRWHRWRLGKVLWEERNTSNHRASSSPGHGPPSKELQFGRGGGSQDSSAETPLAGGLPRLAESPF

[1] = tested on: glucagon receptor, GLP-1 receptor or GIP receptor; test: Agonist profile across receptors assigned from the cAMP reporter assay data; conditions: assigned from the in vitro EC50 data of Tables 1-4

Q: With `CC[C@H](C)[C@H](NC(=O)[C@H](CC(C)C)NC(=O)[C@H](Cc1c[nH]c2ccccc12)NC(=O)[C@H](CC(N)=O)NC(=O)[C@@H](NC(=O)[C@H](Cc1ccccc1)NC(=O)[C@H](CCC(=O)O)NC(=O)[C@@H]1CCCCNC(=O)CC[C@H](NC(=O)[C@H](CC(=O)O)NC(=O)[C@H](CC(C)C)NC(=O)[C@H](Cc2ccc(O)cc2)NC(=O)[C@H](Cc2ccc(O)cc2)NC(=O)[C@H](CO)NC(=O)[C@H](Cc2ccc(O)cc2)NC(=O)[C@H](CC(=O)O)NC(=O)[C@H](CO)NC(=O)[C@@H](NC(=O)[C@H](Cc2ccccc2)NC(=O)[C@@H](NC(=O)CNC(=O)[C@H](CCC(N)=O)NC(=O)C(C)(C)NC(=O)[C@@H](N)Cc2ccc(O)cc2)[C@@H](C)O)[C@@H](C)O)C(=O)N[C@@H](CCC(N)=O)C(=O)N[C@@H](C)C(=O)N[C@@H](C(C)C)C(=O)N1)C(C)C)C(=O)N[C@@H](C)C(=O)NCC(=O)NCC(=O)N1CCC[C@H]1C(=O)N[C@@H](CO)C(=O)N[C@@H](CO)C(=O)NCC(=O)N[C@@H](C)C(=O)N1CCC[C@H]1C(=O)N1CCC[C@H]1C(=O)N1CCC[C@H]1C(=O)N[C@@H](CO)C(N)=O` [mt-162] (H-Y[Aib]QGTFTSDYSYYLDEQAVKEFVNWLIAGGPSSGAPPPS-NH2; lactam 16-20; N-terminus assumed) as the compound, how does the “GIP Receptor relative activity” value (GIP receptor) read?
A: 25.74%

Q: What about the EC50 (GLP-1 receptor) of the same compound?
A: 0.011 nM

Q: What about the “GLP-1 Receptor relative activity” value (GLP-1 receptor) of the same compound?
A: 109.09%

Q: What about the “Glucagon Receptor relative activity” value (glucagon receptor) of the same compound?
A: 0.97%

Q: And the “receptor activity profile (glucagon / GLP-1 / GIP agonism)” value [1]?
A: exemplary GLP-1/GIP co-agonist peptides

Q: What does the source list for `CC[C@H](C)[C@H](NC(=O)[C@H](CO)NC(=O)[C@H](Cc1ccc(O)cc1)NC(=O)[C@H](CC(=O)O)NC(=O)[C@H](CO)NC(=O)[C@@H](NC(=O)[C@H](Cc1ccccc1)NC(=O)[C@@H](NC(=O)CNC(=O)[C@H](CCC(N)=O)NC(=O)C(C)(C)NC(=O)[C@@H](N)Cc1ccc(O)cc1)[C@@H](C)O)[C@@H](C)O)C(=O)N[C@@H](Cc1ccc(O)cc1)C(=O)N[C@@H](CC(C)C)C(=O)N[C@@H](CC(=O)O)C(=O)N[C@H]1CCC(=O)NCCCC[C@@H](C(=O)N[C@@H](CCC(=O)O)C(=O)N[C@@H](Cc2ccccc2)C(=O)N[C@H](C(=O)N[C@@H](CC(N)=O)C(=O)N[C@@H](Cc2c[nH]c3ccccc23)C(=O)N[C@@H](CC(C)C)C(=O)N[C@@H](CC(C)C)C(=O)N[C@@H](C)C(=O)NCC(N)=O)C(C)C)NC(=O)[C@H](C)NC(=O)[C@H](C)NC(=O)[C@H](CCC(N)=O)NC1=O` [mt-164] (H-Y[Aib]QGTFTSDYSIYLDEQAAKEFVNWLLAG-NH2; lactam 16-20; N-terminus assumed)?
A: EC50 (GIP receptor; GIP Receptor EC50, nM): 0.164 nM; GIP Receptor relative activity (GIP receptor): 16.46%; GLP-1 Receptor relative activity (GLP-1 receptor): 56.52%; Glucagon Receptor relative activity (glucagon receptor): 109.93%; receptor activity profile (glucagon / GLP-1 / GIP agonism) [1]: exemplary GLP-1/GIP/glucagon triagonist peptides

Q: How did the “GIP Receptor relative activity” value (GIP receptor) turn out when `CC[C@H](C)[C@H](NC(=O)[C@H](CO)NC(=O)[C@H](Cc1ccc(O)cc1)NC(=O)[C@H](CC(=O)O)NC(=O)[C@H](CO)NC(=O)[C@@H](NC(=O)[C@H](Cc1ccccc1)NC(=O)[C@@H](NC(=O)CNC(=O)[C@H](CCC(N)=O)NC(=O)C(C)(C)NC(=O)[C@@H](N)Cc1ccc(O)cc1)[C@@H](C)O)[C@@H](C)O)C(=O)N[C@@H](Cc1ccc(O)cc1)C(=O)N[C@@H](CC(C)C)C(=O)N[C@@H](CC(=O)O)C(=O)N[C@H]1CCC(=O)NCCCC[C@@H](C(=O)N[C@@H](CCC(=O)O)C(=O)N[C@@H](Cc2ccccc2)C(=O)N[C@H](C(=O)N[C@@H](CC(N)=O)C(=O)N[C@@H](Cc2c[nH]c3ccccc23)C(=O)N[C@@H](CC(C)C)C(=O)N[C@@H](CC(C)C)C(=O)N[C@@H](C)C(=O)NCC(=O)NCC(=O)N2CCC[C@H]2C(=O)N[C@@H](CO)C(=O)N[C@@H](CO)C(=O)NCC(=O)N[C@@H](C)C(=O)N2CCC[C@H]2C(=O)N2CCC[C@H]2C(=O)N2CCC[C@H]2C(=O)N[C@@H](CO)C(=O)N[C@@H](CS)C(N)=O)C(C)C)NC(=O)[C@H](C)NC(=O)[C@H](C)NC(=O)[C@H](CCC(N)=O)NC1=O` [mt-165] (H-Y[Aib]QGTFTSDYSIYLDEQAAKEFVNWLLAGGPSSGAPPPSC-NH2; lactam 16-20; N-terminus assumed) was run?
A: 27.03%

Q: And the EC50 (GLP-1 receptor)?
A: 0.023 nM

Q: What about the “GLP-1 Receptor relative activity” value (GLP-1 receptor) of the same compound?
A: 147.83%

Q: What about the “Glucagon Receptor relative activity” value (glucagon receptor) of the same compound?
A: 18.81%

Q: What about the “receptor activity profile (glucagon / GLP-1 / GIP agonism)” value [1] of the same compound?
A: exemplary GLP-1/GIP/glucagon triagonist peptides

Q: What does the source list for `CC[C@H](C)[C@H](NC(=O)[C@H](CO)NC(=O)[C@H](Cc1ccc(O)cc1)NC(=O)[C@H](CC(=O)O)NC(=O)[C@H](CO)NC(=O)[C@@H](NC(=O)[C@H](Cc1ccccc1)NC(=O)[C@@H](NC(=O)CNC(=O)[C@H](CCC(N)=O)NC(=O)[C@@H](C)NC(=O)[C@@H](N)Cc1ccc(O)cc1)[C@@H](C)O)[C@@H](C)O)C(=O)N[C@@H](Cc1ccc(O)cc1)C(=O)N[C@@H](CC(C)C)C(=O)N[C@@H](CC(=O)O)C(=O)N[C@H]1CCC(=O)NCCCC[C@@H](C(=O)N[C@@H](CCC(=O)O)C(=O)N[C@@H](Cc2ccccc2)C(=O)N[C@H](C(=O)N[C@@H](CC(N)=O)C(=O)N[C@@H](Cc2c[nH]c3ccccc23)C(=O)N[C@@H](CC(C)C)C(=O)N[C@@H](CC(C)C)C(=O)N[C@@H](C)C(=O)NCC(=O)NCC(=O)N2CCC[C@H]2C(=O)N[C@@H](CO)C(=O)N[C@@H](CO)C(=O)NCC(=O)N[C@@H](C)C(=O)N2CCC[C@H]2C(=O)N2CCC[C@H]2C(=O)N2CCC[C@H]2C(=O)N[C@@H](CO)C(=O)N[C@@H](CS)C(N)=O)C(C)C)NC(=O)[C@H](C)NC(=O)[C@H](C)NC(=O)[C@H](CCC(N)=O)NC1=O` [mt-166] (H-Y[dA]QGTFTSDYSIYLDEQAAKEFVNWLLAGGPSSGAPPPSC-NH2; lactam 16-20; N-terminus assumed)?
A: GIP Receptor relative activity (GIP receptor): 5.94%; GLP-1 Receptor relative activity (GLP-1 receptor): 26.87%; Glucagon Receptor relative activity (glucagon receptor): 9.83%; receptor activity profile (glucagon / GLP-1 / GIP agonism) [1]: exemplary GLP-1/GIP/glucagon triagonist peptides

Q: How did the “GIP Receptor relative activity” value (GIP receptor) turn out when `CC[C@H](C)[C@H](NC(=O)[C@H](CO)NC(=O)[C@H](Cc1ccc(O)cc1)NC(=O)[C@H](CC(=O)O)NC(=O)[C@H](CO)NC(=O)[C@@H](NC(=O)[C@H](Cc1ccccc1)NC(=O)[C@@H](NC(=O)CNC(=O)[C@H](CCC(N)=O)NC(=O)C(C)(C)NC(=O)[C@@H](N)Cc1ccc(O)cc1)[C@@H](C)O)[C@@H](C)O)C(=O)N[C@@H](Cc1ccc(O)cc1)C(=O)N[C@@H](CC(C)C)C(=O)N[C@@H](CC(=O)O)C(=O)N[C@H]1CCC(=O)NCCCC[C@@H](C(=O)N[C@@H](CCC(=O)O)C(=O)N[C@@H](Cc2ccccc2)C(=O)N[C@H](C(=O)N[C@@H](CS)C(=O)N[C@@H](Cc2c[nH]c3ccccc23)C(=O)N[C@@H](CC(C)C)C(=O)N[C@@H](CC(C)C)C(=O)N[C@@H](C)C(=O)NCC(N)=O)C(C)C)NC(=O)[C@H](C)NC(=O)[C@H](C)NC(=O)[C@H](CCC(N)=O)NC1=O` [mt-169] (H-Y[Aib]QGTFTSDYSIYLDEQAAKEFVCWLLAG-NH2; lactam 16-20; N-terminus assumed) was run?
A: 14.79%

Q: What about the “GLP-1 Receptor relative activity” value (GLP-1 receptor) of the same compound?
A: 54.39%

Q: And the “Glucagon Receptor relative activity” value (glucagon receptor)?
A: 51.26%

Q: And the “receptor activity profile (glucagon / GLP-1 / GIP agonism)” value [1]?
A: exemplary GLP-1/GIP/glucagon triagonist peptides

Q: Which “GIP Receptor relative activity” value (GIP receptor) does the source give for `CC[C@H](C)[C@H](NC(=O)[C@H](CO)NC(=O)[C@H](Cc1ccc(O)cc1)NC(=O)[C@H](CC(=O)O)NC(=O)[C@H](CO)NC(=O)[C@@H](NC(=O)[C@H](Cc1ccccc1)NC(=O)[C@@H](NC(=O)CNC(=O)[C@H](CCC(=O)O)NC(=O)C(C)(C)NC(=O)[C@@H](N)Cc1ccc(O)cc1)[C@@H](C)O)[C@@H](C)O)C(=O)N[C@@H](Cc1ccc(O)cc1)C(=O)N[C@@H](CC(C)C)C(=O)N[C@@H](CC(=O)O)C(=O)N[C@H]1CCC(=O)NCCCC[C@@H](C(=O)N[C@@H](CCC(=O)O)C(=O)N[C@@H](Cc2ccccc2)C(=O)N[C@H](C(=O)N[C@@H](CC(N)=O)C(=O)N[C@@H](Cc2c[nH]c3ccccc23)C(=O)N[C@@H](CC(C)C)C(=O)N[C@@H](CC(C)C)C(=O)N[C@@H](C)C(=O)NCC(=O)NCC(=O)N2CCC[C@H]2C(=O)N[C@@H](CO)C(=O)N[C@@H](CO)C(=O)NCC(=O)N[C@@H](C)C(=O)N2CCC[C@H]2C(=O)N2CCC[C@H]2C(=O)N2CCC[C@H]2C(=O)N[C@@H](CO)C(=O)N[C@@H](CS)C(N)=O)C(C)C)NC(=O)[C@H](C)NC(=O)[C@H](C)NC(=O)[C@H](CCC(N)=O)NC1=O` [mt-174] (H-Y[Aib]EGTFTSDYSIYLDEQAAKEFVNWLLAGGPSSGAPPPSC-NH2; lactam 16-20; N-terminus assumed) here?
A: 95.65%

Q: What about the “GLP-1 Receptor relative activity” value (GLP-1 receptor) of the same compound?
A: 117.65%

Q: What about the “Glucagon Receptor relative activity” value (glucagon receptor) of the same compound?
A: 0.06%

Q: What about the “receptor activity profile (glucagon / GLP-1 / GIP agonism)” value [1] of the same compound?
A: exemplary GLP-1/GIP co-agonist peptides
